# According to US9302999B2, “Substituted triazoles as herbicides” (E. I. DU PONT DE NEMOURS AND COMPANY, priority 2012, dated 2016):
# Assays:
# Format in all cases: in vivo
# [1] = system: buckwheat, wild (wild buckwheat, Polygonum convolvulus); experiment: Test D pre-/postemergence: buckwheat, wild
# Outline: (§1)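 Visual control ratings (0–100) after 14–21 days, controlled environment. Preemergence on silt loam; postemergence on 2–18 cm plants.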
# [2] = system: cocklebur (common cocklebur, Xanthium strumarium); experiment: Test C pre-/postemergence: cocklebur
# Outline: (§2)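 Preemergence on seeds in loam/sand, postemergence on 2–18 cm (1–4-leaf) plants in peat-based medium; compounds in non-phytotoxic solvent with surfactant. After 13–15 days in greenhouse, visual rating versus controls, 0 (no effect) to 100 (complete control).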
# [3] = system: woolly cupgrass (Eriochloa villosa); experiment: Test C pre-/postemergence: woolly cupgrass
# Outline: as §2
# [4] = system: bromegrass, downy (downy bromegrass, Bromus tectorum); experiment: Test D pre-/postemergence: bromegrass, downy
# Outline: as §1
# [5] = system: bromegrass, downy (downy bromegrass, Bromus tectorum); experiment: Test C pre-/postemergence: bromegrass, downy
# Outline: as §2
# [6] = system: nightshade (eastern black nightshade, Solanum ptycanthum); experiment: Test C pre-/postemergence: nightshade; settings: Preemergence
# Description: Seeds of plant species selected from blackgrass (Alopecurus myosuroides), bromegrass, downy (downy bromegrass, Bromus tectorum), foxtail, green (green foxtail, Setaria viridis), ryegrass, Italian (Italian ryegrass, Lolium multiflorum), winter wheat (Triticum aestivum), wild oat (Avena fatua), galium (catchweed bedstraw, Galium aparine), bermudagrass (Cynodon dactylon), surinam grass (Brachiaria decumbens), cocklebur (common cocklebur, Xanthium strumarium), corn (Zea mays), large crabgrass (Digitaria sanguinalis), woolly cupgrass (Eriochloa villosa), foxtail, giant (giant foxtail, Setaria faberii), goosegrass (Eleusine indica), johnsongrass (Sorghum halepense), kochia (Kochia scoparia), lambsquarters (Chenopodium album), morningglory (Ipomoea coccinea), nightshade (eastern black nightshade, Solanum ptycanthum), nutsedge, yellow (yellow nutsedge, Cyperus esculentus), pigweed (Amaranthus retroflexus), ragweed (common ragweed, Ambrosia elation), soybean (Glycine max), common (oilseed) sunflower (Helianthus annuus), Russian thistle (Salsola kali) and velvetleaf (Abutilon theophrasti) were planted into a blend of loam soil and sand and treated preemergence with test chemicals formulated in a non-phytotoxic solvent mixture which included a surfactant.
# At the same time, plants selected from these crop and weed species and also barley (winter barley, Hordeum vulgare), canarygrass (Phalaris minor), chickweed (common chickweed, Stellaria media) windgrass (Apera spica-venti) and deadnettle (henbit deadnettle, Lamium amplexicaule) were planted in pots containing Redi-Earth® planting medium (Scotts Company, 14111 Scottslawn Road, Marysville, Ohio 43041) comprising spaghnum peat moss, vermiculite, wetting agent and starter nutrients and treated with postemergence applications of test chemicals formulated in the same manner. Plants ranged in height from 2 to 18 cm (1- to 4-leaf stage) for postemergence treatments.
# Treated plants and controls were maintained in a greenhouse for 13 to 15 days, after which time all species were compared to controls and visually evaluated. Plant response ratings, summarized in Table C, are based on a scale of 0 to 100 where 0 is no effect and 100 is complete control. A dash (-) response means no test result.
# rice (Oryza sativa) = experiment: Test B flooded paddy: rice; settings: Flood; 250 g ai/ha; applied to paddy water at 2-leaf stage; visually evaluated after 13 to 15 days
# Outline: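 Paddy-water application: seedlings at 2-leaf stage, flood depth 3 cm maintained for the test duration. Evaluation after 13–15 days in the greenhouse by eye relative to controls; 0–100 scale.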
# [7] = system: speedwell (bird's-eye speedwell, Veronica persica); experiment: Test D pre-/postemergence: speedwell
# Outline: as §1
# [8] = Postemergence, 31 g ai/ha, scale 0 to 100 (0 no effect, 100 complete control)
# [9] = Postemergence, 62 g ai/ha, scale 0 to 100 (0 no effect, 100 complete control)
# [10] = Postemergence, 125 g ai/ha, scale 0 to 100, 0 no effect, 100 complete control
# [11] = Postemergence, 8 g ai/ha, scale 0 to 100
# [12] = Postemergence, 16 g ai/ha, scale 0 to 100
# [13] = Postemergence, 250 g ai/ha, scale 0 to 100
# [14] = Preemergence, 31 g ai/ha, scale of 0 to 100, 0 is no effect, 100 is complete control
# [15] = Preemergence, 62 g ai/ha, scale of 0 to 100, 0 is no effect, 100 is complete control
# [16] = Preemergence, 125 g ai/ha, scale 0 to 100, 0 no effect, 100 complete control
# [17] = Preemergence, 250 g ai/ha, scale 0 to 100, 0 no effect, 100 complete control
# [18] = 31 g ai/ha, scale of 0 to 100, 0 is no effect, 100 is complete control
# [19] = 62 g ai/ha, scale of 0 to 100, 0 is no effect, 100 is complete control
# [20] = 125 g ai/ha, scale 0 to 100, 0 no effect, 100 complete control
# [21] = 250 g ai/ha, scale 0 to 100, 0 no effect, 100 complete control
# [22] = Preemergence, 16 g ai/ha, scale 0 to 100 (0 no effect, 100 complete control)
# [23] = Preemergence, 31 g ai/ha, scale 0 to 100 (0 no effect, 100 complete control)
# [24] = Preemergence, 62 g ai/ha, scale 0 to 100
# [25] = Preemergence, 125 g ai/ha, scale 0 to 100
smiles,measurement,setting,value
Cc1nn(-c2ccc(F)c(F)c2)nc1Oc1ccnc(C(F)(F)F)c1 [Compound 145],"Plant response rating: Buckwheat, Wild",[1]; [8],35
same,"Plant response rating: Buckwheat, Wild",[1]; [9],45
same,"Plant response rating: Buckwheat, Wild",[1]; [10],85
same,"Plant response rating, Buckwheat, Wild",[1]; [11],15
same,"Plant response rating, Buckwheat, Wild",[1]; [12],30
same,"Plant response rating, Cocklebur",[2]; [8],10
same,"Plant response rating, Cocklebur",[2]; [9],15
same,"Plant response rating, Cocklebur",[2]; [10],65
same,"Plant response rating, Cocklebur",[2]; [13],65
same,"Plant response rating, Cocklebur",[2]; [14],0
same,"Plant response rating, Cocklebur",[2]; [15],0
same,"Plant response rating, Cocklebur",[2]; [16],10
same,"Plant response rating, Cupgrass, Woolly",[3]; [8],20
same,"Plant response rating, Cupgrass, Woolly",[3]; [9],25
same,"Plant response rating, Cupgrass, Woolly",[3]; [10],40
same,"Plant response rating, Cupgrass, Woolly",[3]; [13],75
same,"Plant response rating, Cupgrass, Woolly",[3]; [14],55
same,"Plant response rating, Cupgrass, Woolly",[3]; [15],90
same,"Plant response rating, Cupgrass, Woolly",[3]; [16],95
same,"Plant response rating, Cupgrass, Woolly",[3]; [17],98
same,"Plant response rating: Bromegrass, Downy",[4]; [8],5
same,"Plant response rating: Bromegrass, Downy",[4]; [9],10
same,"Plant response rating: Bromegrass, Downy",[4]; [10],10
same,"Plant response rating, Bromegrass, Downy",[4]; [11],5
same,"Plant response rating, Bromegrass, Downy",[4]; [12],5
same,"Plant response rating, Bromegrass, Downy",[5]; [8],5
same,"Plant response rating, Bromegrass, Downy",[5]; [9],10
same,"Plant response rating, Bromegrass, Downy",[5]; [10],20
same,"Plant response rating, Bromegrass, Downy",[5]; [13],25
same,"Plant response rating, Bromegrass, Downy",[5]; [14],5
same,"Plant response rating, Bromegrass, Downy",[5]; [15],20
same,"Plant response rating, Bromegrass, Downy",[5]; [16],70
same,"Plant response rating, Bromegrass, Downy",[5]; [17],85
same,"Plant response rating, Nightshade",[6]; [18],35
same,"Plant response rating, Nightshade",[6]; [19],80
same,"Plant response rating, Nightshade",[6]; [20],85
same,"Plant response rating, Nightshade",[6]; [21],90
same,"Plant response rating, Rice (0 to 100 scale, 0 is no effect, 100 is complete control)",rice (Oryza sativa),80
same,Plant response rating: Speedwell,[7]; [8],70
same,Plant response rating: Speedwell,[7]; [9],85
same,Plant response rating: Speedwell,[7]; [10],100
same,"Plant response rating, Speedwell",[7]; [11],50
same,"Plant response rating, Speedwell",[7]; [12],55
Cc1nn(-c2ccc(F)c(C(F)(F)F)c2)nc1Oc1ccnc(C(F)(F)F)c1 [Compound 147],"Plant response rating: Buckwheat, Wild",[1]; [8],50
same,"Plant response rating: Buckwheat, Wild",[1]; [9],65
same,"Plant response rating: Buckwheat, Wild",[1]; [10],70
same,"Plant response rating, Buckwheat, Wild",[1]; [12],45
same,"Plant response rating, Buckwheat, Wild",[1]; [22],15
same,"Plant response rating, Buckwheat, Wild",[1]; [23],10
same,"Plant response rating, Buckwheat, Wild",[1]; [24],30
same,"Plant response rating, Buckwheat, Wild",[1]; [25],100
same,"Plant response rating, Cocklebur",[2]; [14],35
same,"Plant response rating, Cupgrass, Woolly",[3]; [14],50
same,"Plant response rating, Cupgrass, Woolly",[3]; [15],55
same,"Plant response rating, Cupgrass, Woolly",[3]; [16],95
same,"Plant response rating, Cupgrass, Woolly",[3]; [17],98
same,"Plant response rating: Bromegrass, Downy",[4]; [8],5
same,"Plant response rating: Bromegrass, Downy",[4]; [9],15
same,"Plant response rating: Bromegrass, Downy",[4]; [10],50
same,"Plant response rating, Bromegrass, Downy",[4]; [12],5
same,"Plant response rating, Bromegrass, Downy",[4]; [22],0
same,"Plant response rating, Bromegrass, Downy",[4]; [23],5
same,"Plant response rating, Bromegrass, Downy",[4]; [24],10
same,"Plant response rating, Bromegrass, Downy",[4]; [25],15
same,"Plant response rating, Bromegrass, Downy",[5]; [14],10
same,"Plant response rating, Bromegrass, Downy",[5]; [15],45
same,"Plant response rating, Bromegrass, Downy",[5]; [16],85
same,"Plant response rating, Bromegrass, Downy",[5]; [17],90
same,"Plant response rating, Nightshade",[6]; [18],98
same,"Plant response rating, Nightshade",[6]; [19],98
same,"Plant response rating, Nightshade",[6]; [20],98
same,"Plant response rating, Nightshade",[6]; [21],98
same,"Plant response rating, Rice (0 to 100 scale, 0 is no effect, 100 is complete control)",rice (Oryza sativa),50
same,"Plant response rating, Speedwell",[7]; [22],10
same,"Plant response rating, Speedwell",[7]; [23],20
same,"Plant response rating, Speedwell",[7]; [24],100
same,"Plant response rating, Speedwell",[7]; [25],100
